Reference: patent publication US9365566B2 (Takeda Pharmaceutical Company Limited, priority 2012, dated 2016)

target: T1, human BTK (Homo sapiens, UniProt Q06187); assay: BTK inhibition assay: BTK-mediated phosphorylation of FAM-labeled substrate 5-FAM-EEPLYWSFPAKKK-NH2 (Caliper LC-3000); format: biochemical; conditions: pIC50 = -log(IC50), IC50 molar; residues 382 to 659 of human BTK; incubated at room temperature for 60 minutes; larger values represent higher potency
T1 construct: GST (Glutathione-S-Transferase) (cleaved yes); made in house; host or cells: Spodoptera frugiperda Sf9 cells (baculovirus, Bac-to-Bac)
Excerpt: The activity of compounds as BTK inhibitors may be determined by a variety of methods, including in vitro and in vivo methods.
This construct engineers an in-frame translational fusion with the Glutathione-S-Transferase (GST) protein for use in affinity purification. The fusion protein derived from this construct contains a protease recognition sequence to liberate the BTK from the GST affinity tag. High-titer baculoviral stocks, generated using the Bac-to-Bac® system (Invitrogen), are used to express the recombinant protein in Spodoptera frugiperda Sf9 cells in 10 L Wave bags. Recombinant proteins are isolated from cellular extracts by passage over Glutathione Sepharose 4B (GE Healthcare) and the BTK moiety is released from the GST affinity tag by treatment with PreScission protease. The BTK recombinant protein is further purified by size exclusion chromatography (HiLoad 16/60 Superdex 200, GE Healthcare) in a buffer containing 20 mM Hepes (pH 7.4), 50 mM NaCl, 10 mM MgCl2, 0.25 mM TCEP and 0.1 mM EDTA. The purity of the fractions is assessed by SDS PAGE and the peak protein fractions are pooled and concentrated using Amicon Ultra-15 Centrifugal Filter Devices (Millipore).
The inhibitory properties of compounds relative to BTK is determined using a black 384-well-plate format in a buffer which contains 50 mM Hepes, 10 mM NaCl, 10 mM MgCl2, 0.2 mM EDTA, 0.01% Brij35®, 1 mM DTT, and 0.1 mg/mL BSA at pH 7.3. The test compound is prepared in DMSO using 2-fold serial dilutions for 11 data points, which are added to the buffer so that each dilution contains 3% DMSO. […] The reaction mixtures are incubated at room temperature for 60 minutes and then quenched by adding 25 μL of 50 mM EDTA. To quantify the fluorescent-labeled substrate and product following reaction, the test plate is loaded on a Caliper LC-3000, which measures percent of conversion by microfluidic-based separation.
The compounds were tested in accordance with the assay described on page 34 of the specification.

T1 sequence (Q06187 382-659): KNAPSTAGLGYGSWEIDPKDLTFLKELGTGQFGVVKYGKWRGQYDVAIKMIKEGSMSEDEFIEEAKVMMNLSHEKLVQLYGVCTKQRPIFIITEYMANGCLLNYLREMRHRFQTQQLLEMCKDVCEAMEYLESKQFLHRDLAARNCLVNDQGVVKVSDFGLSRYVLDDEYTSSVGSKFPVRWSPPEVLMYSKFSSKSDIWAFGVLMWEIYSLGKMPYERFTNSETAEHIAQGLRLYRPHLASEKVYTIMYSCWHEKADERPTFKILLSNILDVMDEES

**Q.** How did the IC50 turn out when `NC(=O)c1nnc2c(-c3ccc4nc(C5CCC(F)(F)CC5)[nH]c4c3)cccc2c1N` [Example 84, 4-amino-8-(2-(4,4-difluorocyclohexyl)-1H-benzo[d]imidazol-6-yl)cinnoline-3-carboxamide] was run?
**A.** 398 nM

**Q.** For `NC(=O)c1nnc2c(N3CCc4cn[nH]c4C3)cccc2c1N` [Example 85, 4-amino-8-(4,5-dihydro-1H-pyrazolo[3,4-c]pyridin-6(7H)-yl)cinnoline-3-carboxamide], which IC50 is on record?
**A.** 1000 nM

**Q.** `NC(=O)c1nnc2c(N3CCc4[nH]ncc4C3)cccc2c1N` [Example 86, 4-amino-8-(6,7-dihydro-1H-pyrazolo[4,3-c]pyridin-5(4H)-yl)cinnoline-3-carboxamide] was tested. Which IC50 did it give?
**A.** 2000 nM

**Q.** `NC(=O)c1nnc2c(-c3ccc4nc(Nc5ccccc5)[nH]c4c3)cccc2c1N` [Example 87, 4-amino-8-(2-(phenylamino)-1H-benzo[d]imidazol-6-yl)cinnoline-3-carboxamide] was tested. Which IC50 did it give?
**A.** 100 nM

**Q.** Which IC50 does the source give for `NC(=O)c1nnc2c(-c3ccc4nc(NCc5cccs5)[nH]c4c3)cccc2c1N` [Example 88, 4-amino-8-(2-(thiophen-2-ylmethylamino)-1H-benzo[d]imidazol-6-yl)cinnoline-3-carboxamide] here?
**A.** 10 nM

**Q.** For `NC(=O)c1nnc2c(-c3ccc4nc(NCc5ccccc5)[nH]c4c3)cccc2c1N` [Example 90, 4-amino-8-(2-(benzylamino)-1H-benzo[d]imidazol-6-yl)cinnoline-3-carboxamide], which IC50 is on record?
**A.** 15.8 nM

**Q.** How did the IC50 turn out when `CC1CCC(Nc2nc3ccc(-c4cccc5c(N)c(C(N)=O)nnc45)cc3[nH]2)CC1` (centres unmarked) [Example 91, 4-amino-8-(2-(4-methylcyclohexylamino)-1H-benzo[d]imidazol-6-yl)cinnoline-3-carboxamide] was run?
**A.** 79.4 nM

**Q.** Which IC50 does the source give for `CN(Cc1ccccc1)c1nc2ccc(-c3cccc4c(N)c(C(N)=O)nnc34)cc2[nH]1` [Example 92, 4-amino-8-(2-(benzyl(methyl)amino)-1H-benzo[d]imidazol-6-yl)cinnoline-3-carboxamide] here?
**A.** 1000 nM

**Q.** With `NC(=O)c1nnc2c(-c3ccc4nc(NCC5CCCC5)[nH]c4c3)cccc2c1N` [Example 93, 4-amino-8-(2-(cyclopentylmethylamino)-1H-benzo[d]imidazol-6-yl)cinnoline-3-carboxamide] as the compound, how does the IC50 read?
**A.** 7.94 nM

**Q.** `NC(=O)c1nnc2c(-c3ccc4nc(NCC5C6CC7CC(C6)CC5C7)[nH]c4c3)cccc2c1N` (centres unmarked) [Example 94, 8-(2-((adamantan-2-ylmethyl)amino)-1H-benzo[d]imidazol-6-yl)-4-aminocinnoline-3-carboxamide] was tested. Which IC50 did it give?
**A.** 63.1 nM

**Q.** For `Cc1ccc(CNc2nc3ccc(-c4cccc5c(N)c(C(N)=O)nnc45)cc3[nH]2)cc1` [Example 95, 4-amino-8-(2-(4-methylbenzylamino)-1H-benzo[d]imidazol-6-yl)cinnoline-3-carboxamide], which IC50 is on record?
**A.** 63.1 nM

**Q.** Which IC50 does the source give for `Cc1ccc2c(N)c(C(N)=O)nnc2c1-c1ccc2c(C#N)n[nH]c2c1` [Example 96, 4-amino-8-(3-cyano-1H-indazol-6-yl)-7-methylcinnoline-3-carboxamide] here?
**A.** 158 nM

**Q.** Which IC50 does the source give for `Cc1ccc2c(N)c(C(N)=O)nnc2c1-c1cnc2ncn(C)c2c1` [Example 97, 4-amino-7-methyl-8-(1-methyl-1H-imidazo[4,5-b]pyridin-6-yl)cinnoline-3-carboxamide] here?
**A.** 100 nM

**Q.** With `Cc1ccc2c(N)c(C(N)=O)nnc2c1-c1cnc2c(c1)ncn2C` [Example 98, 4-amino-7-methyl-8-(3-methyl-3H-imidazo[4,5-b]pyridin-6-yl)cinnoline-3-carboxamide] as the compound, how does the IC50 read?
**A.** 5010 nM

**Q.** For `Cc1ccc2c(N)c(C(N)=O)nnc2c1-c1ccc2c(C)n[nH]c2c1` [Example 99, 4-amino-7-methyl-8-(3-methyl-1H-indazol-6-yl)cinnoline-3-carboxamide], which IC50 is on record?
**A.** 63.1 nM

**Q.** Which IC50 does the source give for `Cc1ccc2c(N)c(C(N)=O)nnc2c1-c1ccc2c(F)n[nH]c2c1` [Example 100, 4-amino-8-(3-fluoro-1H-indazol-6-yl)-7-methylcinnoline-3-carboxamide] here?
**A.** 25.1 nM

**Q.** With `Cc1ccc2c(N)c(C(N)=O)nnc2c1-c1cc(F)c2nc[nH]c2c1` [Example 101, 4-amino-8-(4-fluoro-1H-benzo[d]imidazol-6-yl)-7-methylcinnoline-3-carboxamide] as the compound, how does the IC50 read?
**A.** 31.6 nM

**Q.** Which IC50 does the source give for `Cc1ccc2c(N)c(C(N)=O)nnc2c1-c1cc(F)c2cn[nH]c2c1` [Example 102, 4-amino-8-(4-fluoro-1H-indazol-6-yl)-7-methylcinnoline-3-carboxamide] here?
**A.** 25.1 nM

**Q.** Which IC50 does the source give for `COc1cc2[nH]ncc2cc1-c1cccc2c(N)c(C(N)=O)nnc12` [Example 103, 4-amino-8-(6-methoxy-1H-indazol-5-yl)cinnoline-3-carboxamide] here?
**A.** 3.98 nM

**Q.** With `Cc1ccc2c(N)c(C(N)=O)nnc2c1-c1ccc2cn[nH]c2c1F` [Example 104, 4-amino-8-(7-fluoro-1H-indazol-6-yl)-7-methylcinnoline-3-carboxamide] as the compound, how does the IC50 read?
**A.** 31.6 nM

**Q.** `NC(=O)c1nnc2c(-c3cc4[nH]ncc4cc3Cl)cccc2c1N` [Example 105, 4-amino-8-(5-chloro-1H-indazol-6-yl)cinnoline-3-carboxamide] was tested. Which IC50 did it give?
**A.** 15.8 nM

**Q.** How did the IC50 turn out when `Cc1ccc2c(N)c(C(N)=O)nnc2c1-c1ccc2c(C3CC3)n[nH]c2c1` [Example 106, 4-amino-8-(3-cyclopropyl-1H-indazol-6-yl)-7-methylcinnoline-3-carboxamide] was run?
**A.** 501 nM

**Q.** Which IC50 does the source give for `NC(=O)c1nnc2c(-c3cc4[nH]ncc4cc3Cl)ccc(F)c2c1N` [Example 107, 4-amino-8-(5-chloro-1H-indazol-6-yl)-5-fluorocinnoline-3-carboxamide] here?
**A.** 15.8 nM

**Q.** How did the IC50 turn out when `Cc1ccc2c(N)c(C(N)=O)nnc2c1-c1ccc2c(Cl)n[nH]c2c1` [Example 108, 4-amino-8-(3-chloro-1H-indazol-6-yl)-7-methylcinnoline-3-carboxamide] was run?
**A.** 39.8 nM

**Q.** Which IC50 does the source give for `COc1cc2[nH]ncc2cc1-c1ccc(F)c2c(N)c(C(N)=O)nnc12` [Example 109, 4-amino-5-fluoro-8-(6-methoxy-1H-indazol-5-yl)cinnoline-3-carboxamide] here?
**A.** 2 nM

**Q.** With `COc1cc2cn[nH]c2cc1-c1cccc2c(N)c(C(N)=O)nnc12` [Example 110, 4-amino-8-(5-methoxy-1H-indazol-6-yl)cinnoline-3-carboxamide] as the compound, how does the IC50 read?
**A.** 3.98 nM

**Q.** How did the IC50 turn out when `COc1cc2cn[nH]c2cc1-c1ccc(F)c2c(N)c(C(N)=O)nnc12` [Example 111, 4-amino-5-fluoro-8-(5-methoxy-1H-indazol-6-yl)cinnoline-3-carboxamide] was run?
**A.** 2 nM

**Q.** For `Cc1ccc2c(N)c(C(N)=O)nnc2c1-c1ccc2nncn2c1` [Example 112, 8-([1,2,4]triazolo[4,3-a]pyridin-6-yl)-4-amino-7-methylcinnoline-3-carboxamide], which IC50 is on record?
**A.** 100 nM

**Q.** How did the IC50 turn out when `Cc1ccc2c(N)c(C(N)=O)nnc2c1-c1ccc2cncn2c1` [Example 113, 4-amino-8-(imidazo[1,5-a]pyridin-6-yl)-7-methylcinnoline-3-carboxamide] was run?
**A.** 20 nM

**Q.** For `Cc1ccc2c(N)c(C(N)=O)nnc2c1-c1ccn2cncc2c1` [Example 114, 4-amino-8-(imidazo[1,5-a]pyridin-7-yl)-7-methylcinnoline-3-carboxamide], which IC50 is on record?
**A.** 3.98 nM

**Q.** `NC(=O)c1nnc2c(-c3ccc4nc(-c5ccccc5)[nH]c4c3)cccc2c1N` [Example 115, 4-amino-8-(2-phenyl-1H-benzo[d]imidazol-6-yl)cinnoline-3-carboxamide] was tested. Which IC50 did it give?
**A.** 79.4 nM

**Q.** `NC(=O)c1nnc2c(-c3ccc4nc(-c5ccc(F)cc5)[nH]c4c3)cccc2c1N` [Example 116, 4-amino-8-(2-(4-fluorophenyl)-1H-benzo[d]imidazol-6-yl)cinnoline-3-carboxamide] was tested. Which IC50 did it give?
**A.** 39.8 nM
